# According to a melting point compilation (Tetko et al.; mined from patent text by program, amines drawn as free bases though some values may be those of a salt):
row,SMILES,melting point [°C]
1,Fc1ccc2sc(Cl)nc2c1,69
2,O=C(c1ccc(F)cc1)c1ccc(Cl)cn1,98 to 100
3,C=CCSC1(C(F)(F)F)CN(CC)C(=O)Nc2ccc(Cl)cc21 (stereo not drawn),138 to 142
4,CCCCCCCC[C@H]1CC[C@H](C(=O)O)CC1,36 to 37
5,O=S1(=O)CC(c2ccc(F)cc2)CN1 (stereo not drawn),155
6,Cc1cc2nc(Cl)cc(N)c2[nH]1,270
7,CCOC(=O)C(NC(=O)OCc1ccccc1)C(=O)O (stereo not drawn),65 to 70
8,CCS(=O)(=O)c1cn(C)cc(-c2cccc(C(F)(F)F)c2)c1=O,196 to 198
9,CS(=O)(=O)c1nccc(Oc2ccccc2)n1,113 to 116
10,CS(=O)(=S)OCCCCCCCCCCOS(C)(=O)=S (stereo not drawn),45 to 52
11,CCc1cc2c(s1)-n1c(nnc1CNC(=O)Nc1cccc(C)c1)CN=C2c1ccccc1Cl,260 to 262
12,O=c1c(CCl)cc2cc([N+](=O)[O-])ccc2n1-c1ccccc1,152 to 154
13,O=C1CCC(c2ccc(-c3ccc(=O)[nH]n3)cc2)=NN1,> 250
14,O=C1C=CC(=O)C(CC(Cl)(Cl)Cl)=C1,115
15,O=c1[nH]c2cc([N+](=O)[O-])ccc2n(Cc2ccc(P(=O)(O)O)cc2)c1=O,253 to 265
16,Nc1ccc(C(=O)NCC(=O)O)cc1F,198 to 200
17,c1ccc(COc2cccc(CSc3nc4cnccc4[nH]3)c2)cc1,161 to 164
18,CN(C)C=Nc1cc(Cc2c(Cl)cccc2Cl)nc(Nc2ccc(C#N)cc2)n1,175 to 180
19,COC(=O)NN=Cc1ccc([N+](=O)[O-])cc1,212 to 213

row,SMILES,melting point [°C]
1,CCCCN=C(O)c1c(Cl)c(Cl)c(Sc2ccccc2)c(Cl)c1C(=O)O,159 to 163
2,CC1=Nc2c(C)nn(C)c2C2=NCC(C)(C)N12,280 to 283
3,CNC(N)=Nc1nc(-c2cccc(CNC(C)=O)n2)cs1,181
4,CC1(C)CCc2c(Cl)cc(O)cc21,86.5 to 87.5
5,CCCNC(=O)C1CC(=O)N(Cc2ccccc2)C1 (stereo not drawn),86 to 87
6,CNC(=O)c1[nH]c(=O)[nH]c1C,> 300
7,COc1ccnc(CN2C(=O)C(NC(=O)Nc3cccc(C)c3)N=C(c3ccccc3F)c3ccccc32)c1 (stereo not drawn),195 to 200
8,CCN(CC)C(=O)c1ccc(C(c2cccc(O)c2)N2CC(C)N(CC#N)CC2C)cc1 (stereo not drawn),190 to 192
9,CC(Cc1ccccc1)(C(=NC#N)NCc1ccco1)c1ccccn1 (stereo not drawn),152 to 154
10,CCn1c2ccccc2c2sccc(=O)c21,103 to 104
11,CCc1cc(C#N)cc(C(=O)Nc2ccn(C)n2)n1,164
12,CCCCCCCCNC(=O)c1cc(C(C)(C)C)c(O)c(C(C)(C)C)c1,133 to 135
13,O=C(O)c1nnc(-c2ccc(Cl)cc2)o1,277 to 284
14,CCC1C2C3Cc4ccc(OC)c5c4C2(CCN3C)C(O5)C(O)C1(C)C (stereo not drawn),104 to 108
15,O=C(NCC(C(=O)O)C(F)(F)F)Nc1ccccc1 (stereo not drawn),180 to 181
16,CC(C)(CO)n1c(Cc2ccccc2)nc2c(Cl)nc3ccccc3c21,262 to 266
17,O=Cc1csc2ccc(O)cc12,200
18,CCOCc1nc2c(N)nc3ccccc3c2n1CCc1cc(-c2ccc(F)cc2)no1,180 to 181
19,c1ccc2c(c1)oc1nnccc12,120 to 122

row,SMILES,melting point [°C]
1,O=c1n(CC(O)(Cn2cncn2)c2ccc(F)cc2F)cnn1-c1ccc(OC(F)(F)F)cc1 (racemic),128 to 130
2,Cc1cc(O)c(C)c(O)c1C#N,162 to 163
3,CC(=O)c1c(O)cc(C)cc1O,146 to 148
4,CCn1c(-c2ccc(C(F)(F)F)cc2C(F)(F)F)nc(-c2ccncc2)c1-c1ccc(Cl)cc1,148 to 150
5,CC(C)Cc1nc2ccc(Cl)cc2c(-c2ccccc2)c1CO,130 to 131
6,CC(C)C1(C)C(=O)NC2(O)c3ncccc3C(=O)N21 (stereo not drawn),151 to 153
7,Cc1c(-c2ncc([N+](=O)[O-])n2C)cnn1-c1ccc(Cl)cc1,164
8,COC(=O)c1ccc(C(F)F)nc1C,135 to 136
9,"COc1ccnc(C(C)O)c1 (single isomer, unassigned; (+))",92
10,N#CC(c1ccccc1)(c1ccccc1)n1ccnc1,95 to 98
11,CCCCCCCCCCCCNc1nccc(NCCCO)n1,58 to 59
12,BrCc1noc2c1ccc1ccccc12,100 to 103
13,O=C(CS(=O)Cc1ccco1)C12CC3CC(CC(C3)C1)C2 (stereo not drawn),75 to 79
14,CC(C)Nc1nc2cc(Cl)c(Cl)cc2n1[C@H]1C[C@@H](CO)[C@H](O)[C@@H]1O,137 to 138
15,Cc1cc(-c2ccc(C(F)(F)F)cc2)cc(-c2ccnc(-c3ccc(S(N)(=O)=O)s3)n2)n1,> 250
16,C#CCn1nc(-c2ccc(S(C)(=O)=O)cc2)c(-c2ccc(F)cc2)c1C(F)(F)F,158 to 160
17,O=S(=O)(Cl)CCCCCCCc1ccc(OCc2ccccc2)cc1,33 to 35
18,CCCCCCCCCCCCCc1c[nH]c(C(=O)OC)c1,80 to 82

# Next, values leading:
row,melting point [°C],SMILES
1,103 to 106,CCC1=CC(=O)C2(C)CCC3c4ccc(OC)cc4CCC3C12 (stereo not drawn)
2,79 to 81,CC(C)CC(NC(=O)C(Cc1c[nH]c2ccccc12)NC(=O)OC(C)(C)C)C(=O)NCCC(=O)CCl (stereo not drawn)
3,116 to 118,CCOC(=O)c1c(NCc2ccc(OC)c(Cl)c2)ccnc1Cl
4,86 to 87,CCOc1cc2c(cc1OC)OC(C)(C)CC2=O
5,190 to 191,COc1ccc(-c2csc(CC(=O)O)n2)cc1OC1CC2CCC1C2 (stereo not drawn)
6,109 to 111,Cc1[nH]c2ccc(CCN(C)C3CCOCC3)cc2c1C(=O)OCc1ccccc1
7,201,COc1ccccc1NC(=O)Nc1nc(N(CCC(=O)O)Cc2cccc(C)c2)nc(N2CCc3ccccc32)n1
8,133 to 139,Nc1c(F)c(N2CCC(C3(N)CCC3)C2)c(F)c2c1c(=O)c(C(=O)O)cn2[C@@H]1C[C@@H]1F (stereo partly drawn)
9,220,CC(C)c1nc(CO)n(Cc2ccc(=O)[nH]c2)c1Sc1cc(Cl)cc(Cl)c1
10,123,CC(=O)Nc1cc(C)cc(N)c1
11,60,CS(=O)(=O)Nc1ccc(-c2cc(-c3c(-c4cccc(Cl)c4)nc4ccccn34)ccn2)cc1
12,120,CN(C)c1cccc(C(=O)Nc2ccc3ccc(Oc4ccccc4)nc3n2)c1
13,132 to 134,COc1cc2c(cc1F)OCC21C(=O)N(Cc2ccc(C(F)(F)F)o2)c2ccccc21 (stereo not drawn)
14,96 to 98,COc1cccc(-c2cc(C(C)(C)C)c(O)c(C(C)(C)C)c2)c1
15,293 to 294,CC(C)(C)c1cc(-c2nnc(NS(C)(=O)=O)s2)cc(C(C)(C)C)c1O
16,236,COc1ccccc1[C@@]1(O)[C@H](O)CC(c2ccccc2)(c2ccccc2)[C@@H]2CN(C(=O)Cc3ccccc3N3CCCC3)C[C@@H]21 (racemic)
17,66 to 67.5,CCOC(=O)C(=Cc1ccccc1[N+](=O)[O-])C(=O)C(OCC)OCC
18,> 300,O=C(Nc1cc(C(=O)O)cc(C(=O)O)c1)Oc1ccccc1
19,157 to 159,COc1cc2ncn([C@H](C)[C@](O)(Cn3cncn3)c3ccc(F)cc3F)c(=O)c2cc1OC
20,182 to 184,CCCc1c2oc(C#N)cc(=O)c2cc2c(=O)cc(C(=O)OCC)oc12
21,235 to 238,COc1ccc(-c2cnc(C(N)=O)nc2)cc1OC1CCCC1
22,87 to 89,CCOC(=O)C(C(=O)OCC)=C1CSC2=C1SCCNC2
23,317 to 323,O=S1(=O)N=C(NCC2CCCCC2)Nc2cc(Cl)ccc21
24,97,COCc1nn(-c2cccc(NC(C)=O)c2)c(=O)n(Cc2ccc(Cl)cc2)c1=O

row,melting point [°C],SMILES
1,152,NC(=S)c1cc(Oc2ccc(C(F)(F)F)cc2Cl)ccc1[N+](=O)[O-]
2,148 to 151,COc1ccc2c(C3NCCc4ccccc43)c(O)ccc2c1 (stereo not drawn)
3,90 to 92,CN1CCC2(CC1)CN(c1ccccc1)c1ccccc12
4,84 to 86,Cc1oc(-c2ccc(C(F)(F)F)cc2)nc1COc1cccc(C#CC(C)n2oc(=O)[nH]c2=O)c1 (stereo not drawn)
5,89 to 93,COc1ccc(CCc2ccncc2)c2c1OCC2C (stereo not drawn)
6,166 to 179,CCCCNS(=O)(=O)c1ccc(N2CCC(NC[C@H](O)COc3cccc4[nH]c5ccccc5c34)CC2)cc1
7,130 to 131,O=[N+]([O-])c1cc2c(c3c([N+](=O)[O-])cccc13)C(CCl)CN2 (stereo not drawn)
8,281 to 282,CC(C)(C)c1ccc(C(=O)Nc2cn3nc(-n4cnc(Cl)c4Cl)ccc3n2)cc1
9,139,CC(O)CN(CC(C)O)c1cc(C(C)(C)C)cc(C(C)(C)C)c1 (stereo not drawn)
10,253 to 256,COc1cc2c(c(OC)c1OC)C=C(C=CC(=O)N1CCC(C3CCN(C(=O)C=CC4=Cc5c(cc(OC)c(OC)c5OC)CC4)CC3)CC1)CC2
11,186,CCOC(=O)Cc1c(C(=O)OCC)[nH]c(C)c1-c1nc(-c2ccc(OC)cc2)c(-c2ccc(OC)cc2)[nH]1
12,161 to 162,COc1cccc(CN2CCc3cc(O)c(OC)cc3C2)c1
13,241 to 243,COc1ccc2c(C(=O)O)cc3cc(OC)c(OC)cc3c2c1
14,205 to 208,COC(=O)c1ccc2c(nc(C)n2C)c1C(=O)OC
15,192 to 193,Cc1c(C(=O)O)oc2ccccc2c1=O
16,153 to 155,COC(=O)C(CO)NC(=O)c1cc2cc(Cl)ccc2[nH]1 (stereo not drawn)
17,106 to 108,COC1(c2csc(Sc3ccc4c(c3)CCC(=O)N4C)c2)CCOCC1
18,115 to 117,CC(C)OCCn1c(C2CCN(CCc3ccc(C(C)(C)C)cc3)CC2)nc2ccccc21
19,129 to 130,c1cc2cc3ccc(OCCN4CCCCC4)cc3nc2cc1OCCN1CCCCC1
20,100 to 103,CCn1nc(C(=O)NC2CN(C)CCN(C(=O)c3ccccc3)C2)c2ccccc21 (stereo not drawn)
21,93 to 94,COc1cc(CO)c(CO)cc1OCCCl
22,139 to 141,Fc1ccc2c(CCCN3CCN(c4n[nH]c5ccccc45)CC3)noc2c1
23,203 to 204,COC(=O)C(c1ccc(O)cc1)N1CC(N2C(=O)c3ccccc3C2=O)C1=O (stereo not drawn)
